Test results reported in ChEMBL document CHEMBL1136240, “Synthesis and anthelmintic activity of cyclohexadepsipeptides with (S,S,S,R,S,R)-configuration” (Bioorg Med Chem Lett, 2003).

Legend:
[1] = LogP (Octanol-water partition coefficient) was measured at pH 2.3; assay type: physicochemical
Ovis aries [2] = test: In vivo antihelminthic activity against Haemonchus contortus in sheep at a dose of 0.05 mg kg-1; assay type: functional
Ovis aries [3] = test: In vivo antihelminthic activity against Haemonchus contortus in sheep at a dose of 0.10 mg kg-1; assay type: functional; conditions: dose 0.1 mg kg-1
Ovis aries [4] = test: In vivo antihelminthic activity against Haemonchus contortus in sheep at a dose of 0.50 mg kg-1; assay type: functional; conditions: dose 0.5 mg kg-1
Ovis aries [5] = test: In vivo antihelminthic activity against Haemonchus contortus in sheep at a dose of 0.250 mg kg-1; assay type: functional; conditions: dose 0.25 mg kg-1

| logD [1] | Structure (SMILES) | Egg reduction (Ovis aries [2]) | Egg reduction (Ovis aries [3]) | Egg reduction (Ovis aries [4]) | Egg reduction (Ovis aries [5]) |
| --- | --- | --- | --- | --- | --- |
| 3.26 | CCC(C)[C@H]1C(=O)O[C@H](C)C(=O)N(C)[C@@H](C)C(=O)O[C@H](C)C(=O)N(C)[C@@H](C(C)CC)C(=O)O[C@H](C)C(=O)N1C (stereo partly specified) | >=95% | – | – | – |
| 4.2 | CCC(C)[C@H]1C(=O)O[C@H](C)C(=O)N(C)[C@@H](C(C)CC)C(=O)O[C@H](C)C(=O)N(C)[C@@H](C(C)CC)C(=O)O[C@H](C)C(=O)N1C (stereo partly specified) | – | – | >=95% | – |
| 3.1 | CC[C@H](C)[C@H]1C(=O)O[C@H](C)C(=O)N(C)[C@@H]([C@@H](C)CC)C(=O)O[C@H](C)C(=O)N(C)[C@@H](C)C(=O)OC(C)C(=O)N1C (single isomer, unassigned) | – | >=95% | – | – |

Further lines, the compound ahead of its results:

| Structure (SMILES) | logD [1] | Egg reduction (Ovis aries [2]) | Egg reduction (Ovis aries [3]) | Egg reduction (Ovis aries [4]) | Egg reduction (Ovis aries [5]) |
| --- | --- | --- | --- | --- | --- |
| CCCC[C@H]1OC(=O)[C@H](C(C)CC)N(C)C(=O)[C@@H](C)OC(=O)[C@H](C(C)CC)N(C)C(=O)[C@@H](C)OC(=O)[C@H](C(C)CC)N(C)C1=O (stereo partly specified) | 5.14 | – | >=95% | – | – |
| CCC(C)[C@H]1C(=O)O[C@H](C(C)C)C(=O)N(C)[C@@H](C(C)CC)C(=O)O[C@H](C(C)C)C(=O)N(C)[C@@H](C(C)CC)C(=O)O[C@H](C(C)C)C(=O)N1C (stereo partly specified) | – | – | – | >=95% | – |
| CCC(C)[C@H]1C(=O)O[C@H](C)C(=O)N(C)[C@@H](C(C)CC)C(=O)O[C@H](C)C(=O)N(C)[C@@H](C(C)CC)C(=O)OCC(=O)N1C (stereo partly specified) | 4 | – | – | – | >=95% |
